From US20090118220A1, “SUBSTITUTED ADENINES AND THE USES THEREOF” (AstraZeneca AB, priority 2006, published 2009) come the findings set out here.

In brackets after ≈: the same amount, converted by molar mass.

One assay relates to DNA ligase. Description: DNA ligase FRET inhibition assay, isozyme not specified. The assay is classed as biochemical. The method, then:
(§1) Compounds were tested for inhibition of DNA ligase using a Fluorescence Resonance Energy Transfer (FRET) detection assay as previously described (Chen et al. 2002. Analytical Biochemistry 309: 232-240; Benson et al. 2004. Analytical Biochemistry 324:298-300). Assays were performed in 384-well polystyrene flat-bottom black plates in 30 μl reactions containing 3 μl compound dissolved in dimethylsulfoxide, 20 μl 1.5× Enzyme Working Solution (25% glycerol, 45 mM potassium chloride, 45 mM ammonium sulfate, 15 mM dithiothreitol, 1.5 mM ethylenediaminetetraacetic acid (EDTA), 0.003% Brij 35, 75 mM MOPS pH 7.5, 150 nM bovine serum albumin, 1.5 μM NAD^+, 60 nM DNA substrate, 0.375 nM enzyme in water) and 7 μl 70 mM magnesium chlorine solution (96 mM magnesium chloride, 20% glycerol in water) to initiate the reaction. […] Plates were read in a Tecan Ultra plate reader at two separate wavelengths—Read 1: excitation 485, emission 535, Read 2: excitation 485, emission 595. […] Compound potency was based on IC50 measurements determined from reactions performed in the presence of ten different compound concentrations.
Solubility is determined under assay conditions using a nephelometer to detect a change in turbidity as the concentration of compound increases. The limit of solubility is defined as the maximum concentration before a detectable increase in turbidity is measured.

A further assay has as its target S. pneumoniae LigA (Streptococcus pneumoniae serotype 4, UniProt Q97QT2). Kind of assay: DNA ligase FRET inhibition assay. Format: biochemical. The settings on record: FRET detection, ten compound concentrations; read-out: IC50 (μM) against S. pneumoniae LigA. The method, then: as §1, with “reaction. The DNA substrate is similar to that described in Benson et al. (2004. Analytical Biochemistry 324:298-300).” for “reaction.”

In the next assay the test system is S. pneumoniae. Description: Bacterial susceptibility testing, microbroth dilution (NCCLS), MIC. Format: cell-based. As to conditions: Streptococcus pneumoniae; lowest concentration able to reduce growth by 80% or more; read-out: MIC (μg/ml) against S. pneumoniae. How it is done: Compounds were tested for antimicrobial activity by susceptibility testing using microbroth dilution methods recommended by NCCLS. Compounds were dissolved in dimethylsulfoxide and tested in 10 doubling dilutions in the susceptibility assays such that the final dimethylsulfoxide concentration in the assay was 2% (v/v). The organisms used in the assay were grown overnight on appropriate agar media and then suspended in the NCCLS-recommended liquid susceptibility-testing media. The turbidity of each suspension was adjusted to be equal to a 0.5 McFarland standard, a further 1-in-10 dilution was made into the same liquid medium to prepare the final organism suspension, and 100 μL of this suspension was added to each well of a microtiter plate containing compound dissolved in 2 μL of dimethylsulfoxide. Plates were incubated under appropriate conditions of atmosphere and temperature and for times according to NCCLS standard methods prior to being read. The Minimum Inhibitory Concentration (MIC) was determined as the lowest drug concentration able to reduce growth by 80% or more.
Background: Broth dilution looks for growth in wells or tubes with falling amounts of substance.

Chain of S. pneumoniae LigA (Q97QT2 whole entry): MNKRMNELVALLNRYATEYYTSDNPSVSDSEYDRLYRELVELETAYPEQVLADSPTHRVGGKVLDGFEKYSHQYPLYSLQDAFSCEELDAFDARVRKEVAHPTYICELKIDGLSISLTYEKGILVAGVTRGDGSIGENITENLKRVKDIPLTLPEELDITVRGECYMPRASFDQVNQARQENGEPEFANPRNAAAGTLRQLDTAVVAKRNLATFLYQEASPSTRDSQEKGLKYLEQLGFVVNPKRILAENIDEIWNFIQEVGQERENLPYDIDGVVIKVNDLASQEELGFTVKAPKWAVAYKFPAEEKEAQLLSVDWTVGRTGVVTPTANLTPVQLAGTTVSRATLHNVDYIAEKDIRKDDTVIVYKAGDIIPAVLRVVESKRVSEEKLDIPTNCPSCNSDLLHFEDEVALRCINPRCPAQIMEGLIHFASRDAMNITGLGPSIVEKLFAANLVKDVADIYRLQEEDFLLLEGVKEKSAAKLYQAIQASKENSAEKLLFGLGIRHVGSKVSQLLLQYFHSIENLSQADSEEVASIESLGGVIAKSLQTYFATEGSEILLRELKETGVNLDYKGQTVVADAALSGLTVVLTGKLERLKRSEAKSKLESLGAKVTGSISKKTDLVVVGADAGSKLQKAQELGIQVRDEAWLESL

For the molecule `Nc1nc(OC2CCCC2)nc2c1ncn2C1OCCC1(Cl)Cl` (centres unmarked) [2-(cyclopentyloxy)-9-(3,3-dichlorotetrahydrofuran-2-yl)-9H-purin-6-amine], in the assay with DNA ligase, the “inhibition of the ligation reaction at the limit of solubility in the assay medium” value is “approximately 12%”. Consider `C=C[C@]1(O)[C@H](O)[C@@H](C)O[C@H]1n1cnc2c(N)nc(OC3CCCC3)nc21` [(2R,3S,4R,5R)-2-(6-amino-2-(cyclopentyloxy)-9H-purin-9-yl)-5-methyl-3-vinyltetrahydrofuran-3,4-diol], for which the “inhibition of the ligation reaction at the limit of solubility in the assay medium” value in the assay with DNA ligase is listed as “approximately 17%”. As a reminder, the IC50 is the concentration that gives 50% inhibition. Turning to `C[C@H]1O[C@@H](n2c(NCc3ccccc3)nc3c(N)nc(OC4CCCC4)nc32)[C@H](O)[C@@H]1O` [Example 2], the IC50 on S. pneumoniae LigA was found to be 10 µM. As for `Nc1nc(OC2CCCC2)nc2c1ncn2[C@@H]1OC(CO)(CO)[C@@H](O)[C@H]1O` [Example 12, (3S,4R,5R)-5-[6-amino-2-(cyclopentyloxy)-9H-purin-9-yl]-2,2-bis(hydroxymethyl)tetrahydrofuran-3,4-diol], the MIC in the assay with S. pneumoniae came to 16 µg/mL (≈ 42 µM). As to `Nc1nc(OC2CCCC2)nc2c1ncn2[C@@H]1OC(CF)(CF)[C@@H](O)[C@H]1O` [Example 13, (3S,4R,5R)-5-[6-amino-2-(cyclopentyloxy)-9H-purin-9-yl]-2,2-bis(fluoromethyl)tetrahydrofuran-3,4-diol], the half-maximal inhibitory concentration (IC50) at S. pneumoniae LigA was 1 µM.
